Measured values as given in patent US20200368315A1, “ANTIMICROBIAL PEPTIDES AND ADMIXTURES THEREOF SHOWING ANTIMICROBIAL ACTIVITY AGAINST GRAM-NEGATIVE PATHOGENS” (priority 2017, published 2020).
≈ marks a conversion by molar mass, not a printed value. Where “and” joins values, the source holds several entries; their conditions need not be identical. Equal values may be shown once. Read-outs that look alike come from different tables or passages of the source.

Legend:
E. aerogenes LMG 02094 [1] = assay type: cell-based, Enterobacter aerogenes
Excerpt: (§1) The test of synergistic effect was processed by conducting standard chequerboard broth microdilution assays. Nisin (Drug X) was loaded two fold serially diluted from row 1 to 10 in X-axis while GNPs (Drug Y) were loaded in eight two fold serially diluted concentrations from line A to H in Y-axis (FIG. 1). The original concentrations of peptides were MICs of each. Row 11 are used as growth control with no peptide was included, while row 12 with MHB medium-only wells was included as a sterility control as referred before. 50 uL fresh bacterial suspension was added to well 1-11 and final volume of each well on the plate is 100 uL.
(§2) To determine whether the combination therapy is additive, synergistic or antagonistic, fractional inhibitory concentration (FIC) indices were calculated. FICI=FICa+FICb=MICac/MICa+MICbc/MICb. The MICa/MICb is the MIC of compound A/B alone. MICac is the MIC of compound A in combination with compound B and MICbc is the MIC of compound B when it was combination with compound A. […]. FICa is FIC of compound A while FICb is FIC of compound B. The FICI is interpreted as follows: synergistic, FICI≤0.5; additive, 0.5<FICI<1; indifferent, 1<FICI<2; antagonistic, FICI>2.

E. aerogenes LMG 02094 [2] = system: E. aerogenes LMG 02094
Description: (§3) The test of synergistic effect was processed by conducting standard chequerboard broth microdilution assays. […] Row 11 are used as growth control with no peptide was included, while row 12 with MHB medium-only wells was included as a sterility control as referred before. 50 uL fresh bacterial suspension was added to well 1-11 and final volume of each well on the plate is 100 uL.
(§4) The test of synergistic effect was processed as method 1.4.
as §2

A. baumannii LMG01041 [3] = system: A. baumannii LMG01041
Description: as §3, §4, §2

P. aeruginosa LMG 6395 [4] = system: P. aeruginosa LMG 6395
Description: as §3, §4, §2

E. coli LMG15862 [5] = system: E. coli LMG15862
Description: as §3, §4, §2

K. pneumoniae LMG20218 [6] = system: K. pneumoniae LMG20218
Description: as §3, §4, §2

L. lactis MG1363 = conditions: L. lactis MG1363
P. aeruginosa LMG 6395 [7] = assay: microbe, parasite or virus in culture; assay type: cell-based, Pseudomonas aeruginosa; conditions: P. aeruginosa LMG 6395
Method in brief: (§5)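 Minimum inhibitory concentrations come from a duplicate liquid microdilution test in Mueller Hinton Broth. Each well receives a final inoculum of 5*10^5 CFU/mL against two-fold compound dilutions. The lowest concentration without visible growth counts as the MIC.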

E. coli LMG15862 [8] = assay type: cell-based, Escherichia coli
Excerpt: as §1, §2

E. aerogenes LMG 02094 [9] = assay: microbe, parasite or virus in culture; assay type: cell-based, Enterobacter aerogenes; conditions: E. aerogenes LMG 02094
Method in brief: as §5

Gram-negative pathogens = assay type: cell-based; conditions: L-form GNPs alone; five Gram-negative pathogens
Description: Escherichia coli, Klebsiella pneumoniae, Pseudomonas aeruginosa, Acinetobacter baumannii, Enterobacter aerogenes were grown in Luria-Bertani (LB) broth shaken (200 rpm) or on LB agar at 37° C. […] MICs tests were performed in duplicate by a liquid growth inhibition microdilution assays in sterilized polypropylene microtiter plates according to Wiegand and […] [27]. […] The suspension was diluted in a ratio of 1:100 using Mueller Hinton Broth (MHB) and the final inoculum is 5*10^5 CFU/mL. […] The antimicrobials were diluted serially by 1/2 one by one and 50 uL diluted bacterial suspension were added to each well to make the final volume to be 100 uL. Growth control was accomplished by remove 10 uL from well 11 and dilute 1000 times to plate 1/10 suspension on the solid medium. […] The number of colonies on the control agar plate should be around 50 to ensure the concentration of the inoculum and the effectiveness of the experiment. The lowest concentration of the antimicrobials that inhibits visible growth of the indicator is identified as MIC.

A. baumannii LMG01041 [10] = assay type: cell-based, Acinetobacter baumannii
Excerpt: as §1, §2

P. aeruginosa LMG 6395 [11] = assay type: cell-based, Pseudomonas aeruginosa
Excerpt: as §1, §2

E. coli LMG15862 [12] = assay: microbe, parasite or virus in culture; assay type: cell-based, Escherichia coli; conditions: E. coli LMG15862
Method in brief: as §5

K. pneumoniae LMG20218 [13] = assay type: cell-based, Klebsiella pneumoniae
Excerpt: as §1, §2

K. pneumoniae LMG20218 [14] = assay: microbe, parasite or virus in culture; assay type: cell-based, Klebsiella pneumoniae; conditions: K. pneumoniae LMG20218
Method in brief: as §5

A. baumannii LMG01041 [15] = assay: microbe, parasite or virus in culture; assay type: cell-based, Acinetobacter baumannii; conditions: A. baumannii LMG01041
Method in brief: as §5

[16] = MIC of GNP when used with the MICac concentration of nisin
[17] = MIC of nisin in combination with the GNP at the MICbc concentration
[18] = MIC of GNP in combination with vancomycin at the MICac concentration
[19] = MIC of vancomycin in combination with the GNP at the MICbc concentration

Question: `CC[C@H](C)[C@H](NC(=O)[C@H](CCCNC(=N)N)NC(=O)[C@H](CCCNC(=N)N)NC(=O)[C@H](Cc1ccccc1)NC(=O)[C@H](CC(C)C)NC(=O)[C@H](CCCNC(=N)N)NC(=O)[C@@H](N)CCCNC(=N)N)C(=O)N[C@@H](CC(C)C)C(=O)N[C@@H](CCCNC(=N)N)C(=O)N[C@@H](Cc1c[nH]c2ccccc12)C(=O)N[C@@H](CC(C)C)C(N)=O` [GNP-6] was tested. Which MICb (E. aerogenes LMG 02094 [1]; MIC of GNP alone) did it give?
Answer: The MICb was 8 µM.

Question: What about the MICbc (E. aerogenes LMG 02094 [1]; [16]) of the same molecule?
Answer: Its MICbc is 1 µM.

Question: And the MICac (E. aerogenes LMG 02094 [1]; [17])?
Answer: The MICac was 1 µM.

Question: What about the FICI (E. aerogenes LMG 02094 [1]; nisin + GNP) of the same molecule?
Answer: The FICI was 0.156.

Question: What about the MICb (E. aerogenes LMG 02094 [2]; MIC of GNP alone) of the same molecule?
Answer: Its MICb is 8 µM.

Question: What about the MICbc (E. aerogenes LMG 02094 [2]; [18]) of the same molecule?
Answer: The MICbc was 2 µM.

Question: And the MICac (E. aerogenes LMG 02094 [2]; [19])?
Answer: Its MICac is 8 µM.

Question: And the FICI (E. aerogenes LMG 02094 [2]; vancomycin + GNP)?
Answer: The FICI was 0.291.

Question: What about the MICb (A. baumannii LMG01041 [3]; MIC of GNP alone) of the same molecule?
Answer: The MICb was 2 µM.

Question: And the MICbc (A. baumannii LMG01041 [3]; [18])?
Answer: The MICbc was 0.5 µM and 1 µM.

Question: What about the MICac (A. baumannii LMG01041 [3]; [19]) of the same molecule?
Answer: The MICac was 8 µM and 4 µM.

Question: What about the FICI (A. baumannii LMG01041 [3]; vancomycin + GNP) of the same molecule?
Answer: The FICI was 0.5 and 0.625.

Question: What about the MICb (P. aeruginosa LMG 6395 [4]; MIC of GNP alone) of the same molecule?
Answer: Its MICb is 3 µM.

Question: What about the MICbc (P. aeruginosa LMG 6395 [4]; [18]) of the same molecule?
Answer: The MICbc was 1.5 µM.

Question: And the MICac (P. aeruginosa LMG 6395 [4]; [19])?
Answer: Its MICac is 32 µM.

Question: And the FICI (P. aeruginosa LMG 6395 [4]; vancomycin + GNP)?
Answer: The FICI was 0.75.

Question: What about the MICb (E. coli LMG15862 [5]; MIC of GNP alone) of the same molecule?
Answer: The MICb was 2 µM.

Question: And the MICbc (E. coli LMG15862 [5]; [18])?
Answer: Its MICbc is 0.5 µM.

Question: And the MICac (E. coli LMG15862 [5]; [19])?
Answer: Its MICac is 16 µM.

Question: And the FICI (E. coli LMG15862 [5]; vancomycin + GNP)?
Answer: The FICI was 0.5.

Question: And the MICb (K. pneumoniae LMG20218 [6]; MIC of GNP alone)?
Answer: Its MICb is 4 µM.

Question: What about the MICbc (K. pneumoniae LMG20218 [6]; [18]) of the same molecule?
Answer: The MICbc was 0.25 µM.

Question: What about the MICac (K. pneumoniae LMG20218 [6]; [19]) of the same molecule?
Answer: The MICac was 32 µM and 16 µM.

Question: And the FICI (K. pneumoniae LMG20218 [6]; vancomycin + GNP)?
Answer: Its FICI is 0.313 and 0.25 and 0.5.

Question: And the “MIC value of antimicrobial compounds alone” value (L. lactis MG1363)?
Answer: Its value is 1 µM.

Question: What about the “MICb (MIC of GNP alone)” value (P. aeruginosa LMG 6395 [7]; L-form GNP, Table 7) of the same molecule?
Answer: Its value is 3 µM.

Question: And the “MIC value of antimicrobial compounds alone” value (P. aeruginosa LMG 6395 [7])?
Answer: The value was 3 µM.

Question: And the MIC value (P. aeruginosa LMG 6395 [7]; alone)?
Answer: Its MIC value is 3 µM (≈ 4.75 µg/mL).

Question: What about the MICb (E. coli LMG15862 [8]; MIC of GNP alone) of the same molecule?
Answer: Its MICb is 2 µM.

Question: And the MICbc (E. coli LMG15862 [8]; [16])?
Answer: Its MICbc is 0.5 µM.

Question: What about the MICac (E. coli LMG15862 [8]; [17]) of the same molecule?
Answer: The MICac was 1.5 µM.

Question: And the FICI (E. coli LMG15862 [8]; nisin + GNP)?
Answer: The FICI was 0.375.

Question: What about the “MIC value of antimicrobial compounds alone” value (E. aerogenes LMG 02094 [9]) of the same molecule?
Answer: Its value is 8 µM.

Question: What about the “MICb (MIC of GNP alone)” value (E. aerogenes LMG 02094 [9]; L-form GNP, Table 7) of the same molecule?
Answer: Its value is 8 µM.

Question: What about the MIC value (E. aerogenes LMG 02094 [9]; alone) of the same molecule?
Answer: Its MIC value is 8 µM (≈ 12.7 µg/mL).

Question: And the “Activity ranking amongst all the GNPs” value (Gram-negative pathogens)?
Answer: The value was “most potent”.

Question: And the MICb (A. baumannii LMG01041 [10]; MIC of GNP alone)?
Answer: The MICb was 2 µM.

Question: And the MICbc (A. baumannii LMG01041 [10]; [16])?
Answer: Its MICbc is 0.5 µM.

Question: What about the MICac (A. baumannii LMG01041 [10]; [17]) of the same molecule?
Answer: Its MICac is 0.75 µM.

Question: What about the FICI (A. baumannii LMG01041 [10]; nisin + GNP) of the same molecule?
Answer: The FICI was 0.375.

Question: What about the MICb (P. aeruginosa LMG 6395 [11]; MIC of GNP alone) of the same molecule?
Answer: Its MICb is 3 µM.

Question: What about the MICbc (P. aeruginosa LMG 6395 [11]; [16]) of the same molecule?
Answer: Its MICbc is 0.75 µM.

Question: What about the MICac (P. aeruginosa LMG 6395 [11]; [17]) of the same molecule?
Answer: Its MICac is 4.5 µM.

Question: And the FICI (P. aeruginosa LMG 6395 [11]; nisin + GNP)?
Answer: The FICI was 0.375.

Question: And the “MIC value of antimicrobial compounds alone” value (E. coli LMG15862 [12])?
Answer: The value was 2 µM.

Question: What about the “MICb (GNP concentration when used alone)” value (E. coli LMG15862 [12]; L-form GNP, Table 6) of the same molecule?
Answer: Its value is 2 µM.

Question: And the MIC value (E. coli LMG15862 [12]; alone)?
Answer: Its MIC value is 2 µM (≈ 3.17 µg/mL).

Question: What about the MICb (K. pneumoniae LMG20218 [13]; MIC of GNP alone) of the same molecule?
Answer: Its MICb is 4 µM.

Question: What about the MICbc (K. pneumoniae LMG20218 [13]; [16]) of the same molecule?
Answer: The MICbc was 0.5 µM.

Question: What about the MICac (K. pneumoniae LMG20218 [13]; [17]) of the same molecule?
Answer: Its MICac is 3 µM.

Question: And the FICI (K. pneumoniae LMG20218 [13]; nisin + GNP)?
Answer: The FICI was 0.188.

Question: And the “MIC value of antimicrobial compounds alone” value (K. pneumoniae LMG20218 [14])?
Answer: The value was 4 µM.

Question: What about the “MICb (MIC of GNP alone)” value (K. pneumoniae LMG20218 [14]; L-form GNP, Table 7) of the same molecule?
Answer: The value was 4 µM.

Question: What about the MIC value (K. pneumoniae LMG20218 [14]; alone) of the same molecule?
Answer: Its MIC value is 4 µM (≈ 6.34 µg/mL).

Question: What about the “MIC value of antimicrobial compounds alone” value (A. baumannii LMG01041 [15]) of the same molecule?
Answer: The value was 2 µM.

Question: What about the “MICb (MIC of GNP alone)” value (A. baumannii LMG01041 [15]; L-form GNP, Table 7) of the same molecule?
Answer: Its value is 2 µM.

Question: And the MIC value (A. baumannii LMG01041 [15]; alone)?
Answer: Its MIC value is 2 µM (≈ 3.17 µg/mL).
